Values of other authors in patent US20050191370A1, “Vitamin/metal salt compositions for reducing hair loss and/or promoting hair regrowth” (L'OREAL, priority 2000, published 2005).

System: lung cancers in smokers

Question: What does the source list for `CC1=C(/C=C/C(C)=C/C=C/C(C)=C/C=C/C=C(C)/C=C/C=C(C)/C=C/C2=C(C)CCCC2(C)C)C(C)(C)CCC1` [beta-carotene]?
Answer: decrease in the incidence of lung cancers (after 5 years of administration): No decrease; additional deaths (men who received beta-carotene, population of 29,139 men who were smokers): 8%; increase in lung cancers (men who received beta-carotene, population of 29,139 men who were smokers, Finland): 18%
